The nature of series [1]: Stability of reference compounds on treatment with zinc and acetic acid. The format is physicochemical. To be noted: zinc powder, MeOH/THF/AcOH, Rt, 16 h. Here is the method:
Stability of 35. Treatment of 35 with Zinc (see FIG. 28). Dibenzyl carbonate 35 (13 mg) was dissolved in 2.5 mL MeOH/THF/AcOH (1.5/0.5/0.5). Zinc powder was added and the reaction mixture was stirred at Rt for 16 h. […] The mixture was filtered over hyflo and the residue was washed with MeOH/dichloromethane.
Stability of 36. Treatment of 36 with Zinc (see FIG. 28). Paclitaxel-2′-carbonate 36 (3 mg) was dissolved in 2.5 mL MeOH/THF/AcOH (1.5/0.5/0.5). Zinc powder was added and the reaction mixture was stirred at Rt for 16 h. […] The mixture was filtered over hyflo and the residue was washed with MeOH/dichloromethane. The filtrate was concentrated in vacuo.

The nature of series [2]: Release of leaving groups upon reduction of the nitro group with zinc and acetic acid (TLC, 1H-NMR). It is filed as physicochemical. Here is the method: Proof of principle for triple elimination. Formation of benzyl alcohol upon reduction of 13 (see FIG. 19). Compound 13 was dissolved in 3 mL of MeOH/AcOH/THF (1.5/0.5/1). Zinc powder was added and the reaction mixture was stirred at Rt. […] The mixture was filtered over hyflo and the residue was washed with MeOH/dichloromethane.
Proof of principle for triple elimination. Formation of phenethyl alcohol upon reduction of 14 (see FIG. 19). Compound 14 was dissolved in 3.75 mL of MeOH/AcOH/THF (2/0.75/1). Zinc powder was added and the reaction mixture was stirred at Rt. […] The mixture was filtered over hyflo and the residue was washed with MeOH/dichloromethane.
Reduction of the nitro group in 15. Failure of elimination of benzylamine (see FIG. 20). Compound 15 (16 mg) was dissolved in 10 mL of MeOH/AcOH (8/2). Zinc powder was added and the reaction mixture was stirred at Rt. […] The mixture was filtered over hyflo and the residue was washed with MeOH/dichloromethane. The filtrate was concentrated in vacuo, the mixture was freeze-dried. Under a number of varied circumstances (different deuterated solvent combinations, different pH (acidic, neutral, and basic), different buffers), ^1H-NMR did hardly show formation of free benzylamine. After 2 days, maximally 33 percent of free benzylamine was observed (^1H-NMR).
Proof of principle for double elimination. Formation of paclitaxel upon reduction of 22 (see FIG. 22). Nitrocinnamyl biscarbonate 22 was dissolved in 3.5 mL of MeOH/AcOH/THF (2/0.5/1). Zinc powder was added and the reaction mixture was stirred at Rt. […] The mixture was filtered over hyflo and the residue was washed with MeOH/dichloromethane. The filtrate was concentrated in vacuo, dioxane was added and the resulting solution was freeze-dried.
Proof of principle for quadruple elimination. Formation of paclitaxel upon reduction of 26 (see FIG. 23). Compound 26 was dissolved in 3.25 mL MeOH/AcOH/TF (1.5/0.75/1). Zinc powder was added and the reaction mixture was stirred. […] After 16 h, the mixture was filtered over hyflo and the residue was washed with MeOH/dichloromethane. […]

Series [3] deals with M19; melanoma. Description: SRB anti-proliferative test, M19. It is filed as cell-based, human. The following applies: 5 days of incubation. Here is the method: (§1) Cytoxicity of multiple release spacers 16 and 23. The anti-proliferative effect of the monomeric spacers was determined in vitro applying seven well-characterised human tumor cell lines and the microculture sulphorhodamine B (SRB) test. The anti-proliferative effects were determined and expressed as ID50 values (ng/mL), which are the (pro)drug concentrations that gave 50% inhibition of cell growth when compared to control cell growth after 5 days of incubation.

The test system of series [4] is EVSA-T; breast cancer. In words: SRB anti-proliferative test, EVSA-T. The format is cell-based, human. To be noted: 5 days of incubation. The method, then: as §1
The subject of series [5] is MCF-7; breast cancer. In words: SRB anti-proliferative test, MCF-7. The following applies: 5 days of incubation. The format is cell-based, human. Here is the method:
as §1

The test system of series [6] is seven well-characterised human tumor cell lines. Description: Cytotoxicity in a panel of seven human tumor cell lines. It is filed as cell-based. The text has this:
Upon removal or transformation of the specifier V in the compounds or prodrugs disclosed in this invention, thus upon unmasking of B of the branched spacer or spacer system coupled to V, under physiological conditions, the reactive intemiediate(s) formed after self-elimination is (are) likely to be trapped by water, thereby regenerating molecules like aminodiol 23 and/or aminotriol 16. When a multiple release conjugate or prodrug constructed with one of the monomers disclosed in this invention is used for drug delivery purposes, the degradation products of the prodrug or (bio)conjugate after the multiple self-elimination cascade must be non-toxic (except from drugs to be released in tumor targeting approaches). Therefore, we have tested the aminotriol monomer 16 and aminodiol monomer 23 for their cytotoxicity in a panel of seven weul-characterized human tumor cell lines. Both compounds turned out to be non-toxic (see example 33).
Cytoxicity of multiple release spacers 16 and 23. The anti-proliferative effect of the monomeric spacers was determined in vitro applying seven well-characterised human tumor cell lines and the microculture sulphorhodamine B (SRB) test. […]

The subject of series [7] is H226; non-small cell lung cancer. Description: SRB anti-proliferative test, H226. It is filed as cell-based, human. To be noted: 5 days of incubation. Here is the method: as §1
In series [8] the test system is IGROV; ovarian cancer. Description: SRB anti-proliferative test, IGROV. It is filed as cell-based, human. The following applies: 5 days of incubation. Here is the method: as §1
Series [9] has as its system A498; renal cancer. Description: SRB anti-proliferative test, A498. It is filed as cell-based, human. To be noted: 5 days of incubation. The method, then:
as §1

The test system of series [10] is WIDR; colon cancer. In words: SRB anti-proliferative test, WIDR. The format is cell-based, human. To be noted: 5 days of incubation. The method, then:
as §1

The mark [11] stands for this setting: zinc powder, MeOH/AcOH(/THF), Rt.

≈ marks a conversion by molar mass, not a printed value. Entries after “also recorded” stand apart in the source; their conditions may differ.

On to “2′-O-cinnamyloxycarbonylpaclitaxel [Compound 36]”, for which, in [1], the “stability on treatment with zinc and acetic acid (TLC, 1H-NMR)” value is “did not show any degradation; also recorded: no formation of new compounds”.

Consider `O=C(NCc1ccccc1)OCc1ccc([N+](=O)[O-])cc1` [Compound 34], for which the “release of leaving groups by 1H-NMR” value in [2] (after reduction with zinc/acetic acid) is listed as “complete release of free benzylamine”. In addition, in [2] (setting [11]), the “formation of free leaving group by thin layer chromatography” value is given as “formation of a substantial amount of benzylamine” and the “time to disappearance of starting compound (thin layer chromatography)” value is reported as 100 min.

For `O=C(OCc1ccccc1)OCc1ccccc1` [Compound 35, Dibenzyl carbonate], in series [1], the “stability on treatment with zinc and acetic acid (TLC, 1H-NMR)” value is “did not show any degradation; also recorded: no formation of new compounds”.

As for `Nc1ccc(C=C(CO)CO)cc1` [Compound 23], the ID50 in [3] was greater than 0.0625 µg/mL; in [4] it was greater than 0.0625 µg/mL; in series [5], greater than 0.0625 µg/mL; in [7], 0.042406 µg/mL (≈ 0.237 µM); in series [8], greater than 0.0625 µg/mL; in [9], 0.056784 µg/mL (≈ 0.317 µM). In addition, in series [10], the ID50 is greater than 0.0625 µg/mL. Also, the cytotoxicity result in [6] was “non-toxic”.

Values taken from patent US7705045B2, “Prodrugs built as multiple self-elimination-release spacers” (Syntarga, B.V., priority 2003, dated 2010).
